# Source: PMC7503713, “GANT61 Reduces Hedgehog Molecule (GLI1) Expression and Promotes Apoptosis in Metastatic Oral Squamous Cell Carcinoma Cells” (International Journal of Molecular Sciences, 2020)
# Columns and labels:
# Type in all cases: cell-based, human
# GLI3 mRNA = assay: qPCR of HH pathway gene expression in HSC3 cells, GLI3; settings: HSC3, 18 and 36 µM, 12 h, not significant
# Description: (§1) For total RNA isolation, HSC3 cells were plated on 6-well plates, at a density of 0.7 × 10^5 cells/mL (5 mL/well volume), and incubated overnight, followed by treatment with the GLI inhibitor for 12 h at both concentrations (18 and 36 µM).
# (§2) All experiments were carried out under DNAse/RNAse-free conditions. Silica microcolumns were used for RNA extraction, using an RNeasy Plus Mini Kit (QIAGEN, Hilden, Germany). Extracted RNA was analyzed for quantity and purity, using a NanoDrop®® 1000 spectrophotometer (Thermo Fisher Scientific, Waltham, MA, USA).
# (§3) Reverse transcription was performed by using Superscript VILO™ transcriptase enzyme (Invitrogen, Carlsbad, CA, USA). The cDNA samples were stored at −20 °C, until the time of use.
# (§4) HH pathway component expression was evaluated in cells treated or not with GANT61 by qPCR, using TaqMan Gene Expression Assays^TM inventoried for the PTCH1 (Hs00181117_m1), GLI1 (Hs01110766_m1), GLI2 (Hs01119974_m1), and GLI3 (Hs00609233_m1) genes, as well as for B2 M (Hs99999907_m1). […]
# (§5) Following amplification and dissociation runs, quantification cycle (Cq) values were obtained by using the ViiA7^TM System Operational Program (AppliedByosistems, Foster City, CA, USA). For relative quantification, the comparative method (2−∆∆Cq) described by Livak and Schmittgen, 2001 was used. […]
# HT-29 = assay: alamarBlue cytotoxicity assay, HT-29; settings: HT-29, alamarBlue, 72 h of incubation
# Description: (§6) To assess the cytotoxicity of the GLI inhibitor GANT61 (Sigma-Aldrich, St. Louis, MO, USA) in tumor and non-tumor cell lines, an alamarBlue assay (Sigma-Aldrich Chemical Co, St. Louis, MO, USA) was performed after 72 h of exposure to the inhibitor, as described by Ahmed et al., 1994 [46]. Cells were distributed on 96-well plates at a density of 7 × 10^4 cells/mL for adhered cells, and 3 × 10^5 cells/mL for cells in suspension. All tested compounds were dissolved in DMSO, added to wells containing 100 µL of cells in complete medium, and then incubated for 72 h. Eight concentrations of GANT61 (0.19 to 50 µg/mL), Doxorubicin (Laboratory IMA S.A.I.C., Buenos Aires, Argentina), and 5-Fluorouracil (5-FU, Sigma-Aldrich, St. Louis, MO, USA), both used as positive controls at concentrations ranging from 0.03 to 5 µg/mL, were added to respective wells. […] Absorbance was measured at 570 nm (reduced) and 595 nm (oxidized) wavelengths, using a Spectramax 190 plate reader (Molecular Devices; Sunnyvale, CA, USA).
# (§7) Statistical analyses were performed, using GraphPad Prism v. […] Data were analyzed according to distribution along the normal Gaussian curve. […] Differences between groups resulting from in vitro assays were evaluated by ANOVA (analysis of variance) testing, followed by the Student–Newman–Keuls test. […]
# SCC25 = assay: alamarBlue cytotoxicity assay, SCC25; settings: 72 h of incubation
# Description: as §6, §7
# PTCH1 mRNA = assay: qPCR of HH pathway gene expression in HSC3 cells, PTCH1; settings: HSC3, 36 µM, 12 h, not significant
# Description: as §1, §2, §3, §4, §5
# HaCat = assay: alamarBlue cytotoxicity assay, HaCat; settings: 72 h of incubation
# Description: as §6, §7
# PTCH1 protein = assay: Western blot of HH pathway proteins in HSC3 cells, PTCH1; settings: HSC3, 18 and 36 µM, 24 h
# Description: After culturing, HSC3 cells were washed with PBS and denatured by using cell lysis buffer containing 50 mM Tris-HCl (pH 7.4), 1% Triton X-100, 150 mM NaCl, 0.5 mM EGTA, 0.5 EDTA mM, and an anti-protease cocktail (Complete Pro-inhibitor Cocktail Tablets, Roche, Basel, Switzerland). Protein extracts (50 μg) were separated by SDS-PAGE and transferred to Hybond-C Extra (GE Healthcare, Chicago, IL, USA) nitrocellulose membranes. The following antibodies were used in the Western blot assay: mouse […] against Sonic Hedgehog (1:500, Clone 5 H4, Cat. number NBP2-22126, Novus Biologicals, Centennial, CO, USA), rabbit polyclonal against Gli1 (1:500, Novus Biologicals, Cat. number NB600-600), rabbit polyclonal against Patched 1 (1:500, Novus Biologicals, Cat.number NB200-118), and rabbit polyclonal against Smoothened (1:1000, Cat. number AB72130, Abcam, Cambridge, MA, USA). The secondary antibodies were anti-mouse IgG (1:10,000, Santa Cruz Biotechnology, Santa Cruz, CA, USA) and anti-rabbit IgG (1:10,000, GE Healthcare, Chicago, IL, USA). Signal detection was performed by using an ECL + Chemiluminescence Detection System (PerkinElmer, Villebon sur-Yvette, France). The antibody actin (1:10000, Cat. Number15 G5 A11/E2, Invitrogen, Carlsbad, CA, USA) was selected as an endogenous control for analysis of HH pathway component expression in HSC3 cells. […]
# SCC15 = assay: alamarBlue cytotoxicity assay, SCC15; settings: 72 h of incubation
# Description: as §6, §7
# GLI1 mRNA = assay: qPCR of HH pathway gene expression in HSC3 cells, GLI1; settings: 12 h
# Description: as §1, §2, §3, §4, §5
smiles,measurement,setting,value
CN(C)c1ccccc1CN1CCCN(Cc2ccccc2N(C)C)C1c1ccncc1 [GANT61],mRNA expression of GLI3,GLI3 mRNA,Reductions in mRNA expression
same,IC50,HT-29,> 116 µM
same,IC50,SCC25,53.3 µM
same,mRNA expression of PTCH1,PTCH1 mRNA,Reductions in mRNA expression
same,IC50,HaCat,35.1 µM
same,PTCH1 protein expression,PTCH1 protein,reduced levels
same,IC50,SCC15,72.7 µM
same,mRNA expression of GLI1,"GLI1 mRNA; HSC3, 18 µM, not significant",Reductions in mRNA expression
same,mRNA levels of GLI1,"GLI1 mRNA; HSC3, 36 µM, vs negative (DMSO 0.2%) and positive (5-FU) controls",statistically significant reduction
